According to ChEMBL document CHEMBL3886683, “Apoptosis signal-regulating kinase inhibitor” (2016):

What was measured:
Cytochrome P450 2B6 = target: T1, Cytochrome P450 2B6 (Homo sapiens, UniProt P20813); assay: Inhibition Assay: Six test compound concentrations (0.1, 0.25, 1, 2.5, 10, 25 μM in DMSO; final DMSO concentration=0.3%) are incubated with human liver microsomes (0.1 mg/mL) and NADPH (1 mM) in the presence of the probe substrate bupropion (110 μM) for 5 min at 37° C. The selective CYP2B6 inhibitor, ticlopidine, is screened alongside the test compounds as a positive control.
T1 sequence (P20813 whole entry): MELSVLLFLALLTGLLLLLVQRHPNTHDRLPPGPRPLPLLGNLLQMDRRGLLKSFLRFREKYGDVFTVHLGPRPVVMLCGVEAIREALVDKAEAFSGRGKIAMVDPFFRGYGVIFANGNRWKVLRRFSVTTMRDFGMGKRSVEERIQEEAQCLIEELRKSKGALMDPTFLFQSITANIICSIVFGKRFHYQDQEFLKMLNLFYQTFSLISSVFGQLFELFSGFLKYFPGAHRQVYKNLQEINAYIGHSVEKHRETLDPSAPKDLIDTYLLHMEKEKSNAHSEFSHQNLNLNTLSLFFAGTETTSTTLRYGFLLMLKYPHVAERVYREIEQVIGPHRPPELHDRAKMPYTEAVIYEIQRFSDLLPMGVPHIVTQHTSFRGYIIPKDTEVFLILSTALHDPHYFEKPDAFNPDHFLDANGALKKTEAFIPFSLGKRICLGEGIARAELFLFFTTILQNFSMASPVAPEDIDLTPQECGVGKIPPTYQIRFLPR

Cytochrome P450 2C8 = target: T2, Cytochrome P450 2C8 (Homo sapiens, UniProt P10632); assay: (§1) Inhibition Assay: Six test compound concentrations (0.1, 0.25, 1, 2.5, 10, 25 μM in DMSO; final DMSO concentration=0.3%) are incubated with human liver microsomes ([…]) and NADPH (1 mM) in the presence of the probe substrate paclitaxel (7.5 μM) for 30 min at 37° C. The selective CYP2C8 inhibitor, montelukast, is screened alongside the test compounds as a positive control.
T2 sequence (P10632 whole entry): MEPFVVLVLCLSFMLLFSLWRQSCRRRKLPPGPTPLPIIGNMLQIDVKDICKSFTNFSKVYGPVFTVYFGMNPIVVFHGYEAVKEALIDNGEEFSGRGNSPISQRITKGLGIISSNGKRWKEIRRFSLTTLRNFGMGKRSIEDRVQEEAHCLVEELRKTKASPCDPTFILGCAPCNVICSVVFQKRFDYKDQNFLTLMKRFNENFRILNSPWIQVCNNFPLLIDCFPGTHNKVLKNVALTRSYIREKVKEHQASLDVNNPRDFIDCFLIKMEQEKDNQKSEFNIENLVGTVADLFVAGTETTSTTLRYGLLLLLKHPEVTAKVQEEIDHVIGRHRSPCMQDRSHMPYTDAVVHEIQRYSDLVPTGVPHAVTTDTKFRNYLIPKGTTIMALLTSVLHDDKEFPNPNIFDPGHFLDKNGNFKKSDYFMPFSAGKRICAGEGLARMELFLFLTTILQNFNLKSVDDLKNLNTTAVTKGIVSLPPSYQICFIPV

Cytochrome P450 3A4 [1] = target: T3, Cytochrome P450 3A4 (Homo sapiens, UniProt P08684); assay: (§2) Inhibition Assay: Six test compound concentrations (0.1, 0.25, 1, 2.5, 10, 25 μM in DMSO; final DMSO concentration=0.275%) are incubated with human liver microsomes (0.5 mg/mL) and NADPH (1 mM) in the presence of the probe substrate testosterone (50 μM) for 5 min at 37° C. The selective CYP3A4 inhibitor, ketoconazole, is screened alongside the test compounds as a positive control.
Cytochrome P450 2C19 = Cytochrome P450 2C19 (Homo sapiens, UniProt P33261); assay: (§3) Inhibition Assay: Six test compound concentrations (0.1, 0.25, 1, 2.5, 10, 25 μM in DMSO; final DMSO concentration=[…]) are incubated with human liver microsomes (0.5 mg/mL) and NADPH (1 mM) in the presence of the probe substrate mephenytoin (25 μM) for 60 min at 37° C. The selective CYP2C19 inhibitor, tranylcypromine, is screened alongside the test compounds as a positive control.
Cytochrome P450 1A1 = target: T4, Cytochrome P450 1A1 (Homo sapiens, UniProt P04798); assay: as §1, with “ethoxyresorufin (0.5” for “paclitaxel (7.5”, “5” for “30”, “CYP1A” for “CYP2C8”, “alpha-naphthoflavone,” for “montelukast,”
T4 sequence (P04798 whole entry): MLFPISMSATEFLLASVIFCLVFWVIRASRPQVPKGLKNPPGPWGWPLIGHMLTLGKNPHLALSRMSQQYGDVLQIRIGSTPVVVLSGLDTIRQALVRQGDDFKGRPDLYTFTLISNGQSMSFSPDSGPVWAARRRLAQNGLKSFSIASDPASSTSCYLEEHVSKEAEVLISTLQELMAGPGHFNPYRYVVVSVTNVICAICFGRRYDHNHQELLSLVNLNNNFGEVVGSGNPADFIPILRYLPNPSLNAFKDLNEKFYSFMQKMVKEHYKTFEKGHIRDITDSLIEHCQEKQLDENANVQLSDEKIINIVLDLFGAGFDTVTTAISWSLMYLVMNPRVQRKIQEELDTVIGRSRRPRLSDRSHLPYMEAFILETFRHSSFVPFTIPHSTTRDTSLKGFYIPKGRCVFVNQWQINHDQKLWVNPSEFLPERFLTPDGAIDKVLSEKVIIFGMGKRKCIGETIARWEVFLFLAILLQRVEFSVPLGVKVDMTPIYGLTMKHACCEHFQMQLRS

Cytochrome P450 3A4 [2] = target: T3, Cytochrome P450 3A4; assay: as §2, with “concentration=0.26%)” for “concentration=0.275%)”, “(0.1” for “(0.5”, “midazolam ([…])” for “testosterone (50 μM)”
Cytochrome P450 2C9 = Cytochrome P450 2C9 (Homo sapiens, UniProt P11712); assay: as §3, with “(1” for “(0.5”, “tolbutamide (120” for “mephenytoin (25”, “CYP2C9” for “CYP2C19”, “sulphaphenazole,” for “tranylcypromine,”
Sequence of Cytochrome P450 2C9 (P11712 whole entry): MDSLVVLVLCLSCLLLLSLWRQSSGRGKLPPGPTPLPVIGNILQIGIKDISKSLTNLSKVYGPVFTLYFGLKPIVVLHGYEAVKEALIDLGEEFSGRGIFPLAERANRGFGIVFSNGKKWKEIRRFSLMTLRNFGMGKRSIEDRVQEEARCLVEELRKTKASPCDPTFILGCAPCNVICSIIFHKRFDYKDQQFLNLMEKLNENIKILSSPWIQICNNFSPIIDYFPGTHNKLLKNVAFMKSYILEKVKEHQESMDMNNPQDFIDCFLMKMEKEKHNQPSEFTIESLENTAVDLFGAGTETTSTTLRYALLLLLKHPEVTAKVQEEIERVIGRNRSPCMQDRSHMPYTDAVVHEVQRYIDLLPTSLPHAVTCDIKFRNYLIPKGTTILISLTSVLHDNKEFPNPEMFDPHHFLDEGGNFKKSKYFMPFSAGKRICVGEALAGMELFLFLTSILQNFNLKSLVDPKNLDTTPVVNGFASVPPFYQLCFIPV

T3 sequence (P08684 whole entry): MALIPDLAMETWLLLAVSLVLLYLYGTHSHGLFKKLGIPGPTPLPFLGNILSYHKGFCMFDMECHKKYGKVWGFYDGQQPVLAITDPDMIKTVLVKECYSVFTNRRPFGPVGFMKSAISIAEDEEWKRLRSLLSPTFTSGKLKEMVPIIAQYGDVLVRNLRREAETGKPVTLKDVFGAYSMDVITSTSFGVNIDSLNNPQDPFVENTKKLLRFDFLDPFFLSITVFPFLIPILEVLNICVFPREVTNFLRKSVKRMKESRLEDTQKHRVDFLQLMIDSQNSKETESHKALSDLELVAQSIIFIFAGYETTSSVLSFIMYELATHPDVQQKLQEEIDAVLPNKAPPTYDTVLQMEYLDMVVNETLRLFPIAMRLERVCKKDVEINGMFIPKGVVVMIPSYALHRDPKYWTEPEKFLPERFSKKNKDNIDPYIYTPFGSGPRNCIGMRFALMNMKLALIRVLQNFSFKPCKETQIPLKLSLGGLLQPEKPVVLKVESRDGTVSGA
Sequence of Cytochrome P450 2C19 (P33261 whole entry): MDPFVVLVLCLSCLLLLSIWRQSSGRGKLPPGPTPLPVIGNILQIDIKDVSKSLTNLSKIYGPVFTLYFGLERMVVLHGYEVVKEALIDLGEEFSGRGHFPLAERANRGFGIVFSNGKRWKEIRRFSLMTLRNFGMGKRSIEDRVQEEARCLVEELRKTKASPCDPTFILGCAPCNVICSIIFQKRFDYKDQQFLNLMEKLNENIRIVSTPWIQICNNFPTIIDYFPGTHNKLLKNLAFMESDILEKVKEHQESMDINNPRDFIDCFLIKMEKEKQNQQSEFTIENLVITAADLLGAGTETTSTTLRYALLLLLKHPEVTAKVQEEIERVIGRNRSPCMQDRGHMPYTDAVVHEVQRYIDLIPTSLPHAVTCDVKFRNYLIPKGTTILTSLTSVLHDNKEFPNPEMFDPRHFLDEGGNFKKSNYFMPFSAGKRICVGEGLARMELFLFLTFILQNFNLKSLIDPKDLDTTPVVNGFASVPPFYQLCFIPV

With `CC(NC(C)(C)CO)C(=O)c1cccc(Cl)c1` (configuration not stated) the IC50 (Cytochrome P450 2B6) was 19.2 µM.
Molecule `CC(=O)O[C@H]1C(=O)[C@@]2(C)[C@H]([C@H](OC(=O)c3ccccc3)[C@]3(O)C[C@H](OC(=O)[C@H](O)[C@@H](NC(=O)c4ccccc4)c4ccccc4)C(C)=C1C3(C)C)[C@]1(OC(C)=O)CO[C@@H]1[C@@H](O)[C@@H]2O` has an IC50 (Cytochrome P450 2C8) of 21.6 µM.
With `C[C@]12CC[C@H]3[C@@H](C[C@@H](O)C4=CC(=O)CC[C@@]43C)[C@@H]1CC[C@@H]2O` [6beta-hydroxytestosterone] the IC50 (Cytochrome P450 3A4 [1]) was 10.5 µM.
In the case of `CCC1(c2ccc(O)cc2)NC(=O)N(C)C1=O` (configuration not stated), the IC50 (Cytochrome P450 2C19) is reported as > 25 µM.
`O=c1ccc2nc3ccc(O)cc3oc-2c1` was tested, and the IC50 (Cytochrome P450 1A1) was > 25 µM.
`OCc1ncc2n1-c1ccc(Cl)cc1C(c1ccccc1F)=NC2` [ALPHA-HYDROXY-MIDAZOLAM] was tested, and the IC50 (Cytochrome P450 3A4 [2]) was 2.7 µM.
In the case of `CCCCNC(=O)NS(=O)(=O)c1ccc(CO)cc1`, the IC50 (Cytochrome P450 2C9) is reported as > 25 µM.
